Structures can show the parent of a compound that is named as a salt.
Legend:
[1] = target: T1, Recombinant human IKKβ (residues 1-737) (Homo sapiens, UniProt O14920); assay: IKK2 assay (TR-FRET); format: biochemical; settings: ATP 1 μM final, read-out: pIC50 against IKK2 (converted)
T1 construct: Recombinant human IKKβ (residues 1-737); GST (C); made in house
T1 sequence (O14920 1-737): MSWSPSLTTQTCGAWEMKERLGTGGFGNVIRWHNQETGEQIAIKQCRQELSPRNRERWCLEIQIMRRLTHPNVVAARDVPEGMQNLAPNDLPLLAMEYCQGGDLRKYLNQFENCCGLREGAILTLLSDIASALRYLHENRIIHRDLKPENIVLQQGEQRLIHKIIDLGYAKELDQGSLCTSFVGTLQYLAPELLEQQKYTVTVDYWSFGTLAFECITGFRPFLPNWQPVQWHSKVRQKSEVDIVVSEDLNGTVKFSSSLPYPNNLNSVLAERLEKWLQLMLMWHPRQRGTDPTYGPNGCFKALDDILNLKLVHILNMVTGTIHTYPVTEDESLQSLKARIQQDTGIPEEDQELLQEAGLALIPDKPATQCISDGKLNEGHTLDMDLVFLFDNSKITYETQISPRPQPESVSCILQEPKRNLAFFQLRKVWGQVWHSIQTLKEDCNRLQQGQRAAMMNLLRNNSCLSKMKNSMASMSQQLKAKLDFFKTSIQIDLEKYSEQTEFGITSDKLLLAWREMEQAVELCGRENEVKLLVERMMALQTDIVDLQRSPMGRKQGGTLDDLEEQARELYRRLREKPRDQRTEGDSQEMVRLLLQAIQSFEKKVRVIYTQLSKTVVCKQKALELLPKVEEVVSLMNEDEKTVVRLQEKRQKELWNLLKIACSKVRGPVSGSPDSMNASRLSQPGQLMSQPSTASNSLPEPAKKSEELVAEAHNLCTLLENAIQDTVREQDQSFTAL
Summary of the method: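 TR-FRET readout (665 nm over 620 nm Eu reference) of GST-IB Ser32/36 phosphorylation after 60 min detection. Reaction: 1 μM ATP, 25 nM substrate, 0.5-5 nM GST-fused IKKβ 1-737 from baculovirus, pH 7.4 HEPES buffer, 1.7% DMSO, 15 min room temperature, EDTA-terminated.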

[2] = test system: human monocyte stimulated cytokine production (TNF-α); assay: Monocyte assay (LPS-stimulated TNF-α production); format: cell-based; settings: for IC50: 24 h, 200 ng/mL LPS, TNF-α by ELISA; for inhibition at 0.3 µM: read-out: inhibition at 300 nM in the monocyte assay
Summary of the method: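 TNF-α release was measured by ELISA after 24 hrs at 37 C. Cells were stimulated with 200 ng/mL E. coli LPS, with compound added 30 minutes beforehand (0.1% DMSO vehicle). Cells were Ficoll/MACS-isolated CD14+ human monocytes adhered at 1×10^6 cells/mL, and viability was checked by trypan blue.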

With `CCS(=O)(=O)N1CCC(c2c[nH]c3c(C(N)=O)cc(-c4cc(CNC)cc(CNC)c4)cc23)CC1` [Example 270, 5-{3,5-bis[(methylamino)methyl]phenyl}-3-[1-(ethylsulfonyl)-4-piperidinyl]-1H-indole-7-carboxamide trifluoroacetate] the IC50 [1] was no more than 10 µM and the IC50 [2] was greater than 1 µM.
With `CCS(=O)(=O)N1CCC(c2c[nH]c3c(C(N)=O)cc(-c4csc(CN[C@H](C)CO)c4)cc23)CC1` [Example 234, 3-[1-(ethylsulfonyl)-4-piperidinyl]-5-[5-({[(1R)-2-hydroxy-1-methylethyl]amino}methyl)-3-thienyl]-1H-indole-7-carboxamide trifluoroacetate (salt)] the IC50 [1] was no more than 10 µM and the IC50 [2] was no more than 1.5 µM.
With `CC[C@H](C)CNCc1ccc(-c2cc(C(N)=O)c3[nH]cc(C4CCN(S(=O)(=O)CC)CC4)c3c2)s1` [Example 185, 3-[1-(ethylsulfonyl)-4-piperidinyl]-5-[5-({[(2S)-2-methylbutyl]amino}methyl)-2-thienyl]-1H-indole-7-carboxamide] the IC50 [1] was no more than 10 µM and the inhibition at 0.3 µM [2] was 0 to 60%.
For `CCS(=O)(=O)N1CCC(c2c[nH]c3c(C(N)=O)cc(-c4ccc(CNCC5CCCCC5)s4)cc23)CC1` [Example 195, 5-(5-{[(cyclohexylmethyl)amino]methyl}-2-thienyl)-3-[1-(ethylsulfonyl)-4-piperidinyl]-1H-indole-7-carboxamide], the IC50 [1] was no more than 10 µM and the inhibition at 0.3 µM [2] was 0 to 60%.
`CCS(=O)(=O)N1CCC(c2c[nH]c3c(C(N)=O)cc(-c4cc(F)cc(CNCC(C)(C)C)c4)cc23)CC1` [Example 321, 5-(3-{[(2,2-dimethylpropyl)amino]methyl}-5-fluorophenyl)-3-[1-(ethylsulfonyl)-4-piperidinyl]-1H-indole-7-carboxamide trifluoroacetate] gave an IC50 [1] of no more than 10 µM and an IC50 [2] of no more than 1.5 µM.
`CCS(=O)(=O)N1CCC(c2c[nH]c3c(C(N)=O)cc(-c4ccc(CN[C@H](C)CO)cc4)cc23)CC1` [Example 151, 3-[1-(ethylsulfonyl)-4-piperidinyl]-5-[4-({[(1R)-2-hydroxy-1-methylethyl]amino}methyl)phenyl]-1H-indole-7-carboxamide trifluoroacetate] showed an IC50 [1] of no more than 10 µM and an IC50 [2] of no more than 1.5 µM.
`CCS(=O)(=O)N1CCC(c2c[nH]c3c(C(N)=O)cc(-c4cccc(CNS(=O)(=O)c5ccccc5)c4)cc23)CC1` [Example 379, 3-[1-(ethylsulfonyl)-4-piperidinyl]-5-(3-{[(phenylsulfonyl)amino]methyl}phenyl)-1H-indole-7-carboxamide] showed an IC50 [1] of no more than 10 µM and an IC50 [2] greater than 1 µM.
Work on `CCS(=O)(=O)N1CCC(c2c[nH]c3c(C(N)=O)cc(-c4ccc(N5CCOCC5)nn4)cc23)CC1` [Example 301, 3-[1-(ethylsulfonyl)-4-piperidinyl]-5-[6-(4-morpholinyl)-3-pyridazinyl]-1H-indole-7-carboxamide trifluoroacetate] yielded an IC50 [1] of no more than 10 µM and an IC50 [2] greater than 1 µM.
For `CCN(C)Cc1cc(-c2cc(C(N)=O)c3[nH]cc(C4CCN(S(=O)(=O)C(C)C)CC4)c3c2)cs1` [Example 101, 5-(5-{[ethyl(methyl)amino]methyl}-3-thienyl)-3-{1-[(1-methylethyl)sulfonyl]-4-piperidinyl}-1H-indole-7-carboxamide], the IC50 [1] was no more than 10 µM and the IC50 [2] was no more than 1.5 µM.
With `CCS(=O)(=O)N1CCC(c2c[nH]c3c(C(N)=O)cc(-c4ccc(CCNC(=O)C5CCC5)cc4)cc23)CC1` [Example 132, 5-(4-{2-[(cyclobutylcarbonyl)amino]ethyl}phenyl)-3-[1-(ethylsulfonyl)-4-piperidinyl]-1H-indole-7-carboxamide] the IC50 [1] was no more than 10 µM and the IC50 [2] was greater than 1 µM.
Work on `CCS(=O)(=O)N1CCC(c2c[nH]c3c(C(N)=O)cc(-c4cccc(C(C)NC(C)C)c4)cc23)CC1` (stereo not drawn) [Example 293, 3-[1-(ethylsulfonyl)-4-piperidinyl]-5-(3-{1-[(1-methylethyl)amino]ethyl}phenyl)-1H-indole-7-carboxamide trifluoroacetate] yielded an IC50 [1] of no more than 10 µM and an IC50 [2] of no more than 1.5 µM.
`CCS(=O)(=O)N1CCC(c2c[nH]c3c(C(N)=O)cc(-c4coc(CNCC5CCCC5)c4)cc23)CC1` [Example 246, 5-(5-{[(cyclopentylmethyl)amino]methyl}-3-furanyl)-3-[1-(ethylsulfonyl)-4-piperidinyl]-1H-indole-7-carboxamide trifluoroacetate] gave an IC50 [1] of no more than 10 µM and an IC50 [2] of no more than 1.5 µM.
`CCS(=O)(=O)N1CCC(c2c[nH]c3c(C(N)=O)cc(-c4cccc(CNCc5cccs5)c4)cc23)CC1` [Example 304, 3-[1-(ethylsulfonyl)-4-piperidinyl]-5-(3-{[(2-thienylmethyl)amino]methyl}phenyl)-1H-indole-7-carboxamide trifluoroacetate] showed an IC50 [1] of no more than 10 µM and an IC50 [2] of no more than 1.5 µM.
With `CCS(=O)(=O)N1CCC(c2c[nH]c3c(C(N)=O)cc(-c4ccc5c(c4)C(NCC(C)C)CC5)cc23)CC1` (stereo not drawn) [Example 33, 3-[1-(ethylsulfonyl)-4-piperidinyl]-5-{3-[(2-methylpropyl)amino]-2,3-dihydro-1H-inden-5-yl}-1H-indole-7-carboxamide trifluoroacetate] the IC50 [1] was no more than 10 µM and the IC50 [2] was no more than 1.5 µM.
For `CCS(=O)(=O)N1CCC(c2c[nH]c3c(C(N)=O)cc(-c4ccc(CN)cc4)cc23)CC1` [Example 30, 5-[4-(aminomethyl)phenyl]-3-[1-(ethylsulfonyl)-4-piperidinyl]-1H-indole-7-carboxamide], the IC50 [1] was no more than 10 µM and the IC50 [2] was no more than 1.5 µM.
Work on `CCS(=O)(=O)N1CCC(c2c[nH]c3c(C(N)=O)cc(-c4cnn(CCN5CCCC5)c4)cc23)CC1` [Example 253, 3-[1-(ethylsulfonyl)-4-piperidinyl]-5-{1-[2-(1-pyrrolidinyl)ethyl]-1H-pyrazol-4-yl}-1H-indole-7-carboxamide trifluoroacetate] yielded an IC50 [1] of no more than 10 µM and an IC50 [2] greater than 1 µM.
`CCS(=O)(=O)N1CCC(c2c[nH]c3c(C(N)=O)cc(-c4cc(CNCC(C)(C)C)ccc4F)cc23)CC1` [Example 336, 5-(5-{[(2,2-dimethylpropyl)amino]methyl}-2-fluorophenyl)-3-[1-(ethylsulfonyl)-4-piperidinyl]-1H-indole-7-carboxamide trifluoroacetate] was tested, and the IC50 [1] was no more than 10 µM and the IC50 [2] was no more than 1.5 µM.
Compound `CCC(c1cc(-c2cc(C(N)=O)c3[nH]cc(C4CCN(S(=O)(=O)CC)CC4)c3c2)cs1)N1CCCC1` (stereo not drawn) [Example 219, 3-[1-(ethylsulfonyl)-4-piperidinyl]-5-{5-[1-(1-pyrrolidinyl)propyl]-3-thienyl}-1H-indole-7-carboxamide trifluoroacetate] has an IC50 [1] of no more than 10 µM and an IC50 [2] of no more than 1.5 µM.
`CCS(=O)(=O)N1CCC(c2c[nH]c3c(C(N)=O)cc(-c4csc(CN5CCCCC5)c4)cc23)CC1` [Example 235, 3-[1-(ethylsulfonyl)-4-piperidinyl]-5-[5-(1-piperidinylmethyl)-3-thienyl]-1H-indole-7-carboxamide trifluoroacetate] gave an IC50 [1] of no more than 10 µM and an IC50 [2] of no more than 1.5 µM.
`CCS(=O)(=O)N1CCC(c2c[nH]c3c(C(N)=O)cc(-c4cccc(C5CCCN5)c4)cc23)CC1` (stereo not drawn) [Example 332, 3-[1-(ethylsulfonyl)-4-piperidinyl]-5-[3-(2-pyrrolidinyl)phenyl]-1H-indole-7-carboxamide trifluoroacetate] was tested, and the IC50 [1] was no more than 10 µM and the IC50 [2] was no more than 1.5 µM.
`CCS(=O)(=O)N1CCC(c2c[nH]c3c(C(N)=O)cc(-c4coc(CN5CCCC5)c4)cc23)CC1` [Example 247, 3-[1-(ethylsulfonyl)-4-piperidinyl]-5-[5-(1-pyrrolidinylmethyl)-3-furanyl]-1H-indole-7-carboxamide trifluoroacetate] showed an IC50 [1] of no more than 10 µM and an IC50 [2] of no more than 1.5 µM.

Reference: patent US8063071B2 (GlaxoSmithKline, LLC, priority 2007, dated 2011)
